Read-outs that look alike come from different tables or passages of the source.

Consider two substances from US11000571B2 (priority 2016, dated 2021).

Data set [1] relates to MMP-9 (metalloproteinase-9). Also noted: species or system C57BL/6J mice. As to conditions: mouse, in vivo.
The test system of data set [2] is intracerebral hemorrhage (“ICH”) mouse model. Further details: species or system C57BL/6J mice. As to conditions: in vivo.
Data set [3] concerns cultured neurons and astrocytes. As to conditions: cited from earlier work.

In the case of PHGGGWGQPHGGGWGQ [SEQ ID NO:3], the MMP9 serum levels result in data set [1] is on record as “diminished”. Also, in data set [2], the “behavioral and neurological deficits following induction of ICH (overall)” value was “efficacious at diminishing the behavioral and neurological deficits”; the circling behavior result was “exception”; the “sensory response component of 28-point scale” value (from here on “sensory response component”) is “improved at statistically significant levels”. In data set [2] (16 mg/kg), the “neurofunction (pilot studies)” value is “improved neurofunction” and the “sensory response component” value was “improved at statistically significant levels”. In addition, in data set [2] (32 mg/kg), the “sensory response component” value is listed as “improved at statistically significant levels”.
Turning to Hemin, the “kill of cultured neurons and astrocytes” value in data set [3] is 60%-70%.
